According to ChEMBL document CHEMBL1121497, “Studies on cardiovascular agents. 6. Synthesis and coronary vasodilating and antihypertensive activities of 1,2,4-triazolo[1,5-a]pyrimidines fused to heterocyclic systems” (1980):

Experiments:
Type in all cases: functional
Cavia porcellus [1] = species: Cavia porcellus; test: Integrated vasodilating potency (IVP) (the product of compound-induced maximum percent decrease in the perfusion pressure and the duration of the effect in minutes at 100 ug (ia))
Rattus norvegicus = test: Hypotensive index (HI) measured as the area under the time-hypotensive response curve for 6-h period at 30 mg/kg, po
Cavia porcellus [2] = species: Cavia porcellus; test: Integrated vasodilating potency (the product of compound-induced maximum percent decrease in the perfusion pressure and the duration of the effect in minutes at 100 ug (ia); Coronary vasoconstricting action)

Structure (SMILES)	IVP (Cavia porcellus [1])	HI (Rattus norvegicus)	IVP (Cavia porcellus [2])
Cc1nc2ncnn2c2c1CCN2Cc1ccc(Cl)cc1	250	145	–
Cc1nc2ncnn2c2c1NCCN2C	0	5	–
Cc1nc2ncnn2c2c1CC(C)N2C(C)C (centres undefined)	10	0	–
Cc1nc2ncnn2c2c1CCN2c1ccc(S(N)(=O)=O)cc1	14	0	–
CCCCCCCCCCCCN1CCc2c(C)nc3ncnn3c21	–	10	–
Clc1ccccc1CN1CCc2c(C3CC3)nc3ncnn3c21	5	–	–
COc1ccc(-c2nc3nc(C)c4c(n3n2)N(C(C)C)CC4)cc1	–	0	Coronary vasoconstricting action
CCCCCCCCCCN1CCc2c(C)nc3ncnn3c21	–	7	–
CCCN1CCc2c(C)nc3ncnn3c21	193	15	–
CCCCN1c2c(c(C)nc3ncnn23)CC1C (centres undefined)	50	45	–
CCCCN1c2c(c(C)nc3ncnn23)CC1CC (centres undefined)	120	10	–
Cc1nc2ncnn2c2c1CCN2CCCN1CCCCC1	5	45	–
Cc1nc2ncnn2c2c1CCCO2	0	–	–
COc1cc(C(=O)OCCN2CCc3c(C)nc4ncnn4c32)cc(OC)c1OC	21	0	–
Cc1nc2ncnn2c2c1CCN2CC(C)C	107	60	–
Cc1nc2ncnn2c2c1CCN2C(C)C	24	0	–
CCCN1CCN(CCCN2CCc3c(C)nc4ncnn4c32)CC1	3	0	–
COc1ccc(-c2nc3nc(C)c4c(n3n2)N(C(C)(C)C)CC4)cc1	–	13	Coronary vasoconstricting action
Cc1nc2ncnn2c2c1CCN2CCC(=O)c1ccccc1	32	17	–
CCC1Cc2c(C)nc3ncnn3c2N1Cc1ccccc1F (centres undefined)	67	0	–
Cc1nc2ncnn2c2c1CCN2C	50	10	–
CCCCN1CCc2c(C)nc3nc(-c4ccccc4)nn3c21	–	10	Coronary vasoconstricting action
Cc1nc2ncnn2c2c1CCCN2Cc1ccccc1F	–	0	Coronary vasoconstricting action
CCCCCCN1CCc2c(C)nc3ncnn3c21	14	10	–
Cc1nc2ncnn2c2c1CCN2C(C)(C)CO	38	75	–

Structure (SMILES)	IVP (Cavia porcellus [1])	HI (Rattus norvegicus)	IVP (Cavia porcellus [2])
CNC1(C)C2CCC(C2)C1(C)C (centres undefined) [MECAMYLAMINE]	–	110	–
Cc1nc2ncnn2c2c1CCN2C(C)COc1ccccc1 (centres undefined)	63	65	–
Cc1nc2nc(C)c3c(n2n1)N(Cc1ccccc1Cl)CC3	15	18	–
Cc1nc2nc(C)c3c(n2n1)N(C(C)(C)C)CC3	18	35	–
CC(C)(C)N1CCc2c(C3CC3)nc3ncnn3c21	125	20	–
Cc1nc2ncnn2c2c1CCN2CCN1CCCCC1	2	10	–
COc1ccc(CN2CCc3c(C)nc4ncnn4c32)cc1	55	13	–
COc1ccc(-c2nc3nc(C)c4c(n3n2)N(C)CC4)cc1	0	0	–
Cc1nc2ncnn2c2c1CCCN2Cc1ccccc1Cl	–	10	Coronary vasoconstricting action
Cc1nc2ncnn2c2c1CCN2CC(O)CO (centres undefined)	–	15	Coronary vasoconstricting action
Cc1nc2ncnn2c2c1CC(C)N2Cc1ccccc1F (centres undefined)	64	5	–
CC(C)(C)CN1CCc2c(C3CC3)nc3ncnn3c21	50	20	–
Cc1nc2ncnn2c2c1CCN2C(C)(C)CC(C)(C)C	32	–	–
Cc1nc2ncnn2c2c1C(C)CN2C(C)(C)C (centres undefined)	333	20	–
CCCCCN1CCc2c(C)nc3ncnn3c21	15	6	–
COc1cc(C(=O)OCCCN2CCc3c(C)nc4ncnn4c32)cc(OC)c1OC	26	10	–
Cc1nc2ncnn2c2c1CCN2C(C)c1ccccc1 (centres undefined)	137	5	–
Cc1cn(C(C)(C)C)c2c1c(C)nc1ncnn12	330	20	–
Cc1nc2nc(-c3ccc(Cl)cc3)nn2c2c1CCN2C(C)(C)C	–	10	Coronary vasoconstricting action
Cc1nc2ncnn2c2c1CCN2C(C)C(O)c1ccccc1 (centres undefined)	8	0	–
Cc1nc2ncnn2c2c1CCN2Cc1ccccc1	46	170	–
CCCCN(CCCC)CCCN1CCc2c(C)nc3ncnn3c21	0	40	–
CC(C)N1CCc2c(C3CC3)nc3ncnn3c21	45	5	–
Cc1nc2ncnn2c2c1CCN2CCN1CCN(C)CC1	20	10	–
Cc1nc2ncnn2c2c1CCN2CCC(C)C	118	5	–
